# Experimental data reported in patent US7147849B2, “Pharmaceutical formulation” (Bitop AG, priority 1999, dated 2006).
# Test system: human L540Cy tumors
# Set-up: species or system SCID mice
# Details: mouse, in vivo
smiles,measurement,setting,value
"CC1=NC[C@H](O)[C@@H](C(=O)O)N1 [S,S-β-hydroxyectoine]","tumor development compared with PBS without S,S-β-hydroxyectoine",,faster tumor development
same,average survival rates calculated according to Kaplan-Meier,iv,30.0 (±2) days
